Patent publication US20100003217A1, “Compounds and Pharmaceutical Compositions for the Treatment of Viral Infections” (priority 2008, published 2010)
Where “and” joins values, the source holds several entries; their conditions need not be identical. Equal entries are not always repeated.

Test system: Huh-7 cells
Experiment: Metabolic disposition of [^14C]-Compound 1 and [^14C]-2′-C-methyl guanosine in Huh-7 cells (incubation medium, cellular extracts, nucleotide levels)
Assay type: in vitro ADME, human
Conditions: for 2′-C-methyl guanosine nucleotide levels in cellular extracts / Major metabolites observed in cellular extracts (% of total radioactivity) / AUC (area under the concentration-time curve) of Compound 7 levels: Huh7; for AUC (area under the concentration-time curve) of Compound 7 levels: 0-72 h
Description: Huh-7 cells: Confluent monolayers of Huh-7 cells were dispersed using trypsin-EDTA, rinsed and pelleted by centrifugation at 1,000 rpm (Beckman, Model Allegra 6R). Cells were resuspended at 0.2, 0.3 and 0.4×10^6 cells/mL of medium (DMEM supplemented with 1% pyruvate, 10% FBS, 0.5% penicillin-streptomycin, 1% L-glutamine, 1% non-essential amino acids and 22 mM HEPES). Multi-well collagen I-coated plates (rat tail collagen type I; 6-well) were then seeded by addition of 2.0 mL of cell suspension to achieve final cell density of 0.4, 0.6 and 0.8×10^6 cells/well and placed in an incubator at 37° C. overnight to allow cells to attach and acclimatize to culture and the medium. Duplicate plates were prepared with the same cell density for cell number determination at each time point.
Huh-7 incubations were conducted in a final volume of 2.0 mL Huh7 culture medium/well ([…]). Culture medium from overnight incubation of cells was removed and replaced with fresh culture medium, pre-warmed to 37° C. containing [^14C]-Compound 1 or [^14C]-2′-C-methyl guanosine as described above for primary hepatocytes. After 24, 48 and 72 hours, 0.5-1.0 mL of incubation medium was removed and stored at −20° C. until analysis (described below). The remaining medium was discarded and cell monolayers processed and extracted as described above.
Preliminary identification of putative metabolites was conducted by comparing the retention time of observed metabolites in incubation medium and cellular extracts with retention times obtained with chemically synthesized standards using the chromatography conditions described below. Further identification of 2′-C-methyl guanosine nucleotides (mono-, di- and triphosphate) was carried out by incubating cellular extract samples with alkaline phosphatase (10 units for 60 min at 37° C.) and comparing the HPLC retention times of the resulting nucleosides with that of authentic 2′-C-methyl guanosine.
Cellular extracts were prepared by centrifugation at 16,000 RCF using an Eppendorf microcentrifuge (Eppendorf, Model 5415D) for 10 min to remove cellular debris. An aliquot of 5-10 μL of the supernatant was added to 5 mL of EcoLite™ (MP, Irvine, Calif.) liquid scintillation cocktail and radioactivity measured by liquid scintillation counting (LSC) using a Beckman Coulter LS6500 multipurpose liquid scintillation counter (Beckman Instruments, Fullerton, Calif.). The remaining sample was then dried using a Labconco refrigerated centrivap concentrator (Labconco, Kansas City, Mo.). Dry extracts were reconstituted in 120 μL of HPLC-grade water and centrifuged at 16,000 RCF using an Eppendorf microcentrifuge for 10 min. Prior to HPLC analysis (described below), radioactivity of the concentrated extracts was measured by LSC using 5 μL aliquots. Extraction recovery was then determined by comparing total radioactivity in extracts before and after drying. The remaining extract was then analyzed by HPLC with online radioactivity detection using a Flow Scintillation Analyzer Radiomatic™ 515TR. Radioactivity in the separated components was quantified by integrating the peaks using Flo-One™ Software (Perkin Elmer Life Sciences). Samples with poor recovery (<85%) were re-analyzed when possible.
Incubation medium samples were thawed at room temperature, vortexed and centrifuged at 16,000 RCF using an Eppendorf microcentrifuge. An aliquot of 10 μL was added to 5 mL of EcoLite™ (MP, Irvine, Calif.) liquid scintillation cocktail and radioactivity measured by LSC using a Beckman Coulter LS6500 multipurpose liquid scintillation counter (Beckman Instruments, Fullerton, Calif.). Samples (50-100 μL) were then analyzed by HPLC (described below) with online radioactivity detection using a Flow Scintillation Analyzer Radiomatic™ 515TR. Radioactivity in the separated components was quantified by integrating the peaks using Flo-One™ Software (Perkin Elmer Life Sciences). Samples with poor recovery (<85%) were re-analyzed when possible. […]

[1] = 10 μM [^14C]-2′-C-methyl guanosine, 0 h, n = 1
[2] = 10 μM [^14C]-2′-C-methyl guanosine, 24 h
[3] = 10 μM [^14C]-2′-C-methyl guanosine, 24 h, n = 1
[4] = 10 μM [^14C]-2′-C-methyl guanosine, 48 h
[5] = 10 μM [^14C]-2′-C-methyl guanosine, 48 h, n = 1
[6] = 10 μM [^14C]-2′-C-methyl guanosine, 72 h
[7] = 10 μM [^14C]-2′-C-methyl guanosine, 72 h, n = 1
[8] = 10 μM [^14C]-Compound 1, 0 h, replicate 1 of n = 2
[9] = 10 μM [^14C]-Compound 1, 0 h, replicate 2 of n = 2
[10] = 10 μM [^14C]-Compound 1, 24 h, first series
[11] = 10 μM [^14C]-Compound 1, 24 h, replicate 1 of n = 2
[12] = 10 μM [^14C]-Compound 1, 24 h, replicate 2 of n = 2
[13] = 10 μM [^14C]-Compound 1, 24 h, second series
[14] = 10 μM [^14C]-Compound 1, 48 h, first series
[15] = 10 μM [^14C]-Compound 1, 48 h, replicate 1 of n = 2
[16] = 10 μM [^14C]-Compound 1, 48 h, replicate 2 of n = 2
[17] = 10 μM [^14C]-Compound 1, 48 h, second series
[18] = 10 μM [^14C]-Compound 1, 72 h, first series
[19] = 10 μM [^14C]-Compound 1, 72 h, replicate 1 of n = 2
[20] = 10 μM [^14C]-Compound 1, 72 h, replicate 2 of n = 2
[21] = 10 μM [^14C]-Compound 1, 72 h, second series
[22] = Huh7 cells (n=2), 10 μM [^14C]-Compound 1, 0 h
[23] = Huh7 cells (n=2), 10 μM [^14C]-Compound 1, 24 h
[24] = Huh7 cells (n=2), 10 μM [^14C]-Compound 1, 48 h
[25] = Huh7 cells (n=2), 10 μM [^14C]-Compound 1, 72 h

SMILES	2′-C-methyl guanosine nucleotide levels in cellular extracts [1] [pmol/million cells]	Major metabolites observed in cellular extracts (% of total radioactivity) [2]	2′-C-methyl guanosine nucleotide levels in cellular extracts [3]	Major metabolites observed in cellular extracts (% of total radioactivity) [4]	2′-C-methyl guanosine nucleotide levels in cellular extracts [5]	Major metabolites observed in cellular extracts (% of total radioactivity) [6]	2′-C-methyl guanosine nucleotide levels in cellular extracts [7]	2′-C-methyl guanosine nucleotide levels in cellular extracts [8] [pmol/million cells]	2′-C-methyl guanosine nucleotide levels in cellular extracts [9] [pmol/million cells]	Major metabolites observed in cellular extracts (% of total radioactivity) [10]	2′-C-methyl guanosine nucleotide levels in cellular extracts [11]	2′-C-methyl guanosine nucleotide levels in cellular extracts [12] [pmol/million cells]	Major metabolites observed in cellular extracts (% of total radioactivity) [13]	Major metabolites observed in cellular extracts (% of total radioactivity) [14]	2′-C-methyl guanosine nucleotide levels in cellular extracts [15] [pmol/million cells]	2′-C-methyl guanosine nucleotide levels in cellular extracts [16] [pmol/million cells]	Major metabolites observed in cellular extracts (% of total radioactivity) [17]	Major metabolites observed in cellular extracts (% of total radioactivity) [18]	2′-C-methyl guanosine nucleotide levels in cellular extracts [19] [pmol/million cells]	2′-C-methyl guanosine nucleotide levels in cellular extracts [20] [pmol/million cells]	also measured
C[C@@]1(O)[C@H](O)[C@@H](COP(=O)(O)O)O[C@H]1n1cnc2c(=O)[nH]c(N)nc21 [Compound 5, [(2R)-2-methyl-β-D-ribofuranosyl]guanine 5′-monophosphate]	0	BLD^a (BLD = below limit of detection (30 DPM))	BLD^a (BLD = below limit of detection (0.02 pmol/million cells))	BLD (BLD = below limit of detection (30 DPM))	BLD (BLD = below limit of detection (0.02 pmol/million cells))	BLD (BLD = below limit of detection (30 DPM))	BLD (BLD = below limit of detection (0.02 pmol/million cells))	0	0	BLD (BLD = below limit of detection (30 DPM))	BLD^a (BLD = below limit of detection (0.02 pmol/million cells))	1.40	4.81 % of total radioactivity	6.57 % of total radioactivity	1.50	1.50	5.82 % of total radioactivity	6.93 % of total radioactivity	1.10	1.10	Major metabolites observed in cellular extracts (% of total radioactivity) [21]: 5.74 % of total radioactivity; metabolites observed in medium (% of total radioactivity) [22]: BLD; metabolites observed in medium (% of total radioactivity) [23]: 2.0% and 3.2%; metabolites observed in medium (% of total radioactivity) [24]: 0.8% and 1.5%; metabolites observed in medium (% of total radioactivity) [25]: 0.7% and 1.0%
C[C@@]1(O)[C@H](O)[C@@H](COP(=O)(O)NCc2ccccc2)O[C@H]1n1cnc2c(=O)[nH]c(N)nc21 [Compound 2, [(2R)-2-methyl-β-D-ribofuranosyl]guanine-N-benzylaminyl-5′-monophosphate]																					metabolites observed in medium (% of total radioactivity) [22]: 1.7% and 2.9%; metabolites observed in medium (% of total radioactivity) [23]: 8.2% and 8.0%; metabolites observed in medium (% of total radioactivity) [24]: 18.3% and 17.2%; metabolites observed in medium (% of total radioactivity) [25]: 26% and 25.3% and 27.2%
C[C@@]1(O)[C@H](O)[C@@H](COP(=O)(O)OP(=O)(O)OP(=O)(O)O)O[C@H]1n1cnc2c(=O)[nH]c(N)nc21 [Compound 7, [(2R)-2-methyl-β-D-ribofuranosyl]guanine 5′-triphosphate]	0	10.5 % of total radioactivity	3.10 pmol/million cells	7.18 % of total radioactivity	1.40 pmol/million cells	10.4 % of total radioactivity	1.60 pmol/million cells	0	0	59.7 % of total radioactivity	8.60 pmol/million cells	21.3	71.8 % of total radioactivity	71.5 % of total radioactivity	16.1	15.2	59.3 % of total radioactivity	72.1 % of total radioactivity	11.1	13.3	AUC (area under the concentration-time curve) of Compound 7 levels (10 μM [^14C]-2′-C-methyl guanosine, n = 1): 120 pmol * hr/million cells; AUC (area under the concentration-time curve) of Compound 7 levels (10 μM [^14C]-Compound 1, replicate 1 of n = 2): 726 pmol * hr/million cells; AUC (area under the concentration-time curve) of Compound 7 levels (10 μM [^14C]-Compound 1, replicate 2 of n = 2): 1,020 pmol * hr/million cells; Major metabolites observed in cellular extracts (% of total radioactivity) [21]: 69.6 % of total radioactivity; Compound 7 AUC0-72h (Huh7 cells (n=1), [^14C]-2′-C-methyl guanosine): 120 pmol*h/million cells; Compound 7 AUC0-72h (Huh7 cells (n=2), [^14C]-Compound 1): 873 pmol*h/million cells; Compound 7 maximum concentration (Huh7 cells, [^14C]-2′-C-methyl guanosine, at 24 hours): 3 pmol/million cells; Maximum Compound 7 levels (Huh7 cells, [^14C]-Compound 1, at 48 hours): 16 pmol/million cells; % of total radioactivity in cellular extracts (Huh7 cells, up to 72 hours after [^14C]-Compound 1 incubation): 83-93%; Levels of Compound 7 in Huh7 cells lower than in human hepatocytes ([^14C]-Compound 1): 88%
